From PubChem BioAssay (NCI)
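Where inhibition never reached the appropriate level, the endpoint shown equals the highest concentration tested. Otherwise, values were interpolated linearly from a five-concentration, 48-hour dose response in 96-well plates. GI50 = concentration required for 50% inhibition of growth. The concentration for full growth arrest is given as TGI.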

Experiments:
Test in all cases: growth of human tumour cells (NCI), 48 h
[1] = test system: SK-MEL-28 melanoma
[2] = test system: HL-60(TB) leukemia
[3] = test system: SK-MEL-2 melanoma
[4] = test system: M14 melanoma
[5] = test system: HT29 colon
[6] = test system: A498 renal
[7] = test system: T-47D breast
[8] = test system: SR leukemia
[9] = test system: EKVX NSCLC
[10] = test system: OVCAR-5 ovarian

SMILES | TGI [1] [µM] | TGI [2] [µM] | TGI [3] [µM] | TGI [4] [µM] | TGI [5] [µM] | TGI [6] [µM] | TGI [7] [µM] | TGI [8] [µM] | TGI [9] [µM] | TGI [10] [µM] | GI50 [1] [µM] | GI50 [2] [µM] | GI50 [3] [µM] | GI50 [4] [µM] | GI50 [5] [µM] | GI50 [6] [µM] | GI50 [7] [µM] | GI50 [8] [µM] | GI50 [9] [µM] | GI50 [10] [µM]
COC(=O)[C@]12CC[C@H]3CN(C(=O)OCc4ccccc4)[C@H]([C@H]31)[C@H](c1ccco1)N2S(=O)(=O)c1ccc(C)cc1 | > 100 | 58.7 | 49.3 | 44.6 | 58.7 | 79.7 | 93 | 81 | > 100 | > 100 |  |  |  |  |  |  |  |  |  | 
COc1ccc2cc(-c3ccc(-c4ccc(C(=N)N)s4)s3)ccc2c1 | 6.04 | 5.34 | 6.7 | 15.7 | 3.27 | 42.3 | 4.01 | 3.38 | 6.1 | 4.18 | 2.5 | 1.84 | 2.66 | 4 | 1.72 | 14.3 | 1.79 | 0.851 | 2.14 | 2.11
O=C(c1cc2ccccc2cc1O)N1CCCCC1 | > 100 | 46.9 | 46.5 | 64.9 | > 100 | 63.2 | > 100 | 55.9 | 78.1 |  |  |  |  |  |  |  |  |  |  | 
CN(C)c1ccc(C=C2N=C(c3ccccc3)N(c3cc(C(=O)c4ccccc4)ccc3N3C(=O)/C(=C/c4ccc(N(C)C)cc4)N=C3c3ccccc3)C2=O)cc1 | > 100 | 37.6 | 21.4 | > 100 | 24.7 | > 100 | > 100 | > 100 | > 100 | > 100 |  |  |  |  |  |  |  |  |  | 
Nc1c(-c2cccc3ccccc23)c2ccc([N+](=O)[O-])cc2c(=O)n1-c1nc2ccccc2s1 | > 100 | 5.37 | 19.2 | > 38.9 | 19.9 | > 100 | > 100 | > 100 | 17.4 | > 41.2 |  |  |  |  |  |  |  |  |  | 
COc1ccc(C2(CC(C)O)SCCCS2)cc1 (configuration not stated) | > 100 | > 100 | > 100 | > 100 | > 100 | > 100 | > 100 | > 100 | > 100 | > 100 |  |  |  |  |  |  |  |  |  | 
C=CCO/N=C/c1cc(NC(=S)c2ccoc2C)ccc1Cl | > 100 | 46 | 28 | 37.9 | 26.2 | 58.6 | 23.7 | 30.9 | 29.2 | 33.8 |  |  |  |  |  |  |  |  |  | 
CCCCC1c2c([nH]c3ccccc23)C2C(=O)N(c3ccc(OC)cc3)C(=O)C2C1CCC (configuration not stated) | > 10 | 5.45 | > 10 | 8.53 | 8.52 | 6.71 | > 10 | 8.22 | > 10 | > 10 |  |  |  |  |  |  |  |  |  | 
CCN(CC)CCOc1ccc(N2C(=O)c3cc(OC)c(OC)cc3C2=O)cc1 | > 100 | > 100 | > 100 | > 100 | > 100 | > 100 | > 100 | > 100 | > 100 | > 100 |  |  |  |  |  |  |  |  |  | 
COc1ccc2nc3cc(Cl)ccc3c(NCCCNCCCNc3c4ccc(Cl)cc4nc4ccc(OC)cc34)c2c1 |  | 23.2 | 0.15 | 0.157 | 0.231 | 0.463 | 1.23 | 2.73 | 0.89 | 0.237 |  |  |  |  |  |  |  |  |  | 
O=c1c2cc3c(cc2[nH]c2ncccc12)OCO3 | > 10 | > 10 | > 10 | > 10 | > 10 | > 10 | > 10 | > 10 | > 10 | > 10 |  |  |  |  |  |  |  |  |  | 
Cc1csc(-c2cn(C)c3c2C(=O)C(N)=CC3=O)n1 | > 100 | 14.8 | > 82.7 | > 47.4 | > 67.1 | > 100 | > 100 | 19.5 | > 100 | > 100 |  |  |  |  |  |  |  |  |  | 
Brc1cccc(Nc2nc(-c3cccs3)nc3ccc(Br)cc23)c1 | > 100 | > 100 | 94.5 | 71.3 | 53 | > 100 | > 100 | > 100 | 98.1 | 98.2 |  |  |  |  |  |  |  |  |  | 
COc1ccc(C#CC(=O)O)c(OC)c1 | > 100 | > 100 | > 100 | > 100 | > 100 | > 100 | > 100 | > 100 | > 100 | > 100 |  |  |  |  |  |  |  |  |  | 
O=c1c2ccccc2nc2[nH][nH]c(=S)n12 | > 100 | > 100 | > 100 | > 100 | > 100 | > 100 | > 100 | > 100 | > 100 | > 100 |  |  |  |  |  |  |  |  |  | 
CC1CC[C@@]2(OC1)OC1C[C@H]3[C@@H]4CC[C@H]5CC(OC6OC(CO)C(OC7OC(CO)C(O)C(O)C7OC7OC(CO)C(O)C(O)C7O)C(O)C6O)CCC5(C)[C@H]4CCC3(C)C1[C@@H]2C (some centres not stated) | 8.32 | 11.6 | 8.05 | 10.4 | 1.86 | 4.08 | 8.51 | 7.95 | 2.21 | 8.08 |  |  |  |  |  |  |  |  |  | 

SMILES | TGI [1] [µM] | TGI [2] [µM] | TGI [3] [µM] | TGI [4] [µM] | TGI [5] [µM] | TGI [6] [µM] | TGI [7] [µM] | TGI [8] [µM] | TGI [9] [µM] | TGI [10] [µM] | GI50 [1] [µM] | GI50 [2] [µM] | GI50 [3] [µM] | GI50 [4] [µM] | GI50 [5] [µM] | GI50 [6] [µM] | GI50 [7] [µM] | GI50 [8] [µM] | GI50 [9] [µM] | GI50 [10] [µM]
COc1cc2c(cc1-c1c(C)noc1C)cc(C)c(=O)n2Cc1ccccn1 | > 100 | 3.77 | > 100 | > 100 | > 100 | 5.12 | > 100 | > 100 | > 100 | > 100 | 3.33 | 0.301 | 2.46 | 0.797 | 0.469 | 0.864 | 0.456 | 0.709 | 1.67 | 2.78
CN(C)CCCN1C(=S)N(CCCN(C)C)c2c3cc(O)ccc3nc3c([N+](=O)[O-])ccc1c23 | 10.8 | 22.1 | 15.2 | 22.4 | 6.31 | 5.47 | 9.48 | > 22.5 | 16.2 | 28.5 |  |  |  |  |  |  |  |  |  | 
COc1nc(C#CCC(C)O)nc(OC)n1 (configuration not stated) | > 100 | 94.6 | 87.3 | 39.6 | > 100 | 77.1 | > 100 | > 100 | 39.3 | 33.3 |  |  |  |  |  |  |  |  |  | 
COc1ccc(CC(O)CN2CCOCC2)cc1 (configuration not stated) | > 100 | > 100 | > 100 | > 100 | > 100 | > 100 | > 100 | > 100 | > 100 | > 100 |  |  |  |  |  |  |  |  |  | 
O=C(/C=C/c1ccsc1)c1ccsc1 | 89.3 | 40.6 | > 100 | 66.4 | 74.8 | > 100 | 92.2 | 46.5 | > 100 |  |  |  |  |  |  |  |  |  |  | 
Cc1c(S(=O)(=O)/N=C(\N)Nc2ccc(Cl)cc2)sc2ccc(Cl)cc12 | 48.5 | 63.5 | 33.9 | 37.9 | 38.8 | 30.1 | > 100 | > 100 | 33.4 | 38.1 |  |  |  |  |  |  |  |  |  | 
CCCn1c(CN(Cc2nc3ccccc3n2CCC)Cc2nc3ccccc3n2CCC)nc2ccccc21 | 38.1 | 4.46 | 35.4 | 42 | > 41.1 | > 64.1 | 28.6 | 11.8 | 40.4 | > 89.9 |  |  |  |  |  |  |  |  |  | 
CCCNC(=O)CCC(C)[C@H]1CCC2C3C(C[C@H](OC(C)=O)[C@@]21C)[C@@]1(C)CCC2(C[C@H]1C[C@H]3OC(C)=O)OOC1(CCC(C)CC1)OO2 (some centres not stated) | > 100 | 32.4 | 52.9 | > 100 | > 100 | 74.5 | 38.4 | 36.5 | 30.6 | 87.4 |  |  |  |  |  |  |  |  |  | 
CO[C@]12CC(=O)C3(C(C[C@H]4CC5CC=C6C[C@@H](OC(C)=O)CC[C@]6(OC(C)=O)C5C[C@@]43C)C1)C1C[C@H]3[C@@H]4CC=C5C[C@@H](OC(C)=O)CC[C@]5(OC(C)=O)[C@H]4CC[C@]3(C)C12 (some centres not stated) | > 100 | > 100 | 41.1 | 47.2 | 29.5 | 66.1 | 33.4 | > 100 | 54.9 | 43.5 |  |  |  |  |  |  |  |  |  | 
CN(C)Cc1cc(C(=O)/C=C/c2ccc(O)cc2)cc(CN(C)C)c1O | > 100 | 49.9 | > 100 | > 100 | > 100 | > 100 | > 100 | 69.5 | > 100 | > 100 |  |  |  |  |  |  |  |  |  | 
Cc1ccccc1C(O)(c1nccn1C)c1nccn1C | > 100 | > 100 | > 100 | > 100 | > 100 | > 100 | > 100 | > 100 | > 100 | > 100 |  |  |  |  |  |  |  |  |  | 
CC(C)(C)NC(=O)/C(=C\Sc1ccccc1)c1ccc2c(c1)OCO2 | > 100 | 41.9 | 34.6 | 54.8 | 35.9 | 59 | > 100 | 83.8 | > 100 | > 100 |  |  |  |  |  |  |  |  |  | 
O=c1cc(N=P(c2ccccc2)(c2ccccc2)c2ccccc2)n(-c2ccccc2)c(=O)n1-c1ccccc1 | > 100 | 44.6 | 58.1 | > 100 | > 100 | 21.1 | 55.2 | 24.6 | 49.8 | > 100 |  |  |  |  |  |  |  |  |  | 
CC(C)/C(Cl)=N\OC(=O)Nc1ccc(C#N)cc1 | 25 | > 22.7 | 25.6 | 7.85 | 43 | 27.7 | 40.2 | > 25.6 | 7.31 | 28.4 |  |  |  |  |  |  |  |  |  | 
CCOc1cc(C2CC(c3ccc(NS(=O)(=O)c4cc([N+](=O)[O-])ccc4C)cc3)=NN2C(=O)c2ccccc2)ccc1O (configuration not stated) | > 100 | 65.4 | 30.9 | 76.1 | > 100 | 44.3 | 71.3 | > 100 | 61.4 | > 100 |  |  |  |  |  |  |  |  |  | 
